The source of these data is patent US20060128015A1, “Small hepatocyte-rich colonies, process for preparing the colonies, process for maturating the colonies into liver tissue and method of estimating effects of drug by using matured small hepatocyte-rich colonies” (priority 2001, published 2006).

One series deals with CYP4A1. The series is described as follows: CYP4A1 induction capacity in matured small hepatocyte-rich colonies (Western blot). The class given is cell-based, rat. The following applies: 24 hours, matured hepatocytes = 100%, control (0.5% DMSO) 74.1. A general note: Immunoblotting shows a protein as a band on a membrane.
In a further series the test system is CYP2E1. The following applies: 24 hours after addition, matured hepatocytes = 100%, 0 mM gave 74.1. On the procedure:
(§1) About 200 to 250/cm^2 of the small hepatocyte colonies prepared in Example 2 were placed on a culture dish (diameter: 60 mm).
(§2) After the culture in a culture medium (1) (DMEM, 10% FBS, 10 mM nicotinamide, 1 mM ascorbic acid 2-phosphate, 10 ng/ml EGF, 10^−7 M dexamethasone, 0.5 μg/ml insulin, penicillin and streptomycin) for 12 to 24 hours, the culture medium was exchanged with a serum-free culture medium (2) (DMEM, 10 mM nicotinamide, 1 mM ascorbic acid 2-phosphate, 10 ng/ml EGF, 10^−7 M dexamethasone, 0.5 μg/ml insulin, penicillin, streptomycin and 1% DMSO). After the culture for additional 10 days while the culture medium was exchanged every other day, Matrigel diluted to 500 μg/ml with the culture medium was placed on the cells. 48 hours after the addition of Matrigel, the culture medium was exchanged, and the culture was continued by using DMSO-free culture medium (2) for 4 days. 6 days after the addition of Matrigel, drugs shown in the following Tables 3 to 6 were added in a concentration shown in the same Tables thereto, respectively. 24 hours after the addition of the drug, the cells were recovered.
(§3) After the proteins were separated with 10% SDS-PAGE, the intended protein was stained on the membrane by Western blot. The intensity of the band on the blot was digitized by a densitometer.
(§4) The primary antibodies used were goat anti-CYP2B 1 antibody (diluted to 1/300), goat anti-CYP3A2 antibody (diluted to 1/300), goat anti-CYP2E1 antibody (diluted to 1/1000) and goat anti-CYP4A1 antibody (diluted to 1/1000) (all bought from Daiichi Kagaku Yakuhin). The secondary antibodies were HRP-conjugated anti-goat/sheep Ig (diluted to 1/5000) bought from DAKO. The chromogenic substrate was Super Signal West Dura (chemiluminescence) purchased from Pierce.
(§5) Tables 3 to 6 show the relative activity of each enzyme as the induction capacity of each drug for the enzyme, wherein the activity of each enzyme in matured hepatocytes is defined as 100%. Pregnenolone was used in the form of a solution containing 0.5% ethanol, and clofibrate was used in the form of a solution containing 0.5% DMSO.

A further series has as its system CYP2B1. Put plainly: CYP2B1 induction capacity in matured small hepatocyte-rich colonies (Western blot). The format is cell-based, rat. The following applies: 24 hours after addition, matured hepatocytes = 100%, 0 mM gave 30.8.
Another series relates to CYP3A2. The series is described as follows: CYP3A2 induction capacity in matured small hepatocyte-rich colonies (Western blot). The format is cell-based, rat. The following applies: 24 hours, matured hepatocytes = 100%, control (0.5% ethanol) 94.9. How it is done: as §1, §2, §3, §4, §5

Where two headings read alike, the source gives them in different places.

Consider `CCOC(=O)C(C)(C)Oc1ccc(Cl)cc1` [Clofibrate], for which the “CYP4A1 induction capacity (%)” value with CYP4A1 (0.1 mM in 0.5% DMSO) is listed as 76.5%; in the series on CYP4A1 (0.25 mM in 0.5% DMSO) it was 82.4%; with CYP4A1 (0.5 mM in 0.5% DMSO), 98.8%; in the series with CYP4A1 (0.75 mM in 0.5% DMSO) it was 86.4%.

On to `CCO` [Ethanol], for which the “CYP2E1 induction capacity (%)” value with CYP2E1 (250 mM) turned out to be 76.5%; with CYP2E1 (500 mM), 82.4%; with CYP2E1 (750 mM) it was 98.8%; with CYP2E1 (1000 mM) it was 86.4%.

On to `CCC1(c2ccccc2)C(=O)NC(=O)NC1=O` [Phenobarbital], for which the “CYP2B1 induction capacity (%)” value in the series on CYP2B1 (0.75 mM) amounted to 37.4%; in the series on CYP2B1 (1.5 mM), 47.9%; with CYP2B1 (3.0 mM) it was 46.9%; with CYP2B1 (4.5 mM), 55.0%.

On to `CC(=O)[C@H]1CC[C@H]2[C@@H]3CC=C4C[C@@H](O)CC[C@]4(C)[C@H]3CC[C@]12C` [Pregnenolone], for which the “CYP3A2 induction capacity (%)” value with CYP3A2 (0.5 × 10^−3 mM in 0.5% ethanol) turned out to be 115.5%; in the series on CYP3A2 (1.0 × 10^−3 mM in 0.5% ethanol), 141.0%; in the series on CYP3A2 (2.0 × 10^−3 mM in 0.5% ethanol), 148.1%; with CYP3A2 (5.0 × 10^−3 mM in 0.5% ethanol), 153.2%.
